Experiments:
Test in all cases: Eurofins kinase panel
Type in all cases: biochemical
Aurora-B(h) = biological target: T1, Aurora-B(h) (Homo sapiens, UniProt Q96GD4); conditions: read-out: Inhibition rate (%)
T1 construct: purchased Eurofins (KinaseProfiler)

NUAK2(h) = biological target: T2, NUAK2(h) (Homo sapiens, UniProt Q9H093); conditions: read-out: Inhibition rate (%)
T2 construct: purchased Eurofins (KinaseProfiler)
T2 sequence (Q9H093 1-628): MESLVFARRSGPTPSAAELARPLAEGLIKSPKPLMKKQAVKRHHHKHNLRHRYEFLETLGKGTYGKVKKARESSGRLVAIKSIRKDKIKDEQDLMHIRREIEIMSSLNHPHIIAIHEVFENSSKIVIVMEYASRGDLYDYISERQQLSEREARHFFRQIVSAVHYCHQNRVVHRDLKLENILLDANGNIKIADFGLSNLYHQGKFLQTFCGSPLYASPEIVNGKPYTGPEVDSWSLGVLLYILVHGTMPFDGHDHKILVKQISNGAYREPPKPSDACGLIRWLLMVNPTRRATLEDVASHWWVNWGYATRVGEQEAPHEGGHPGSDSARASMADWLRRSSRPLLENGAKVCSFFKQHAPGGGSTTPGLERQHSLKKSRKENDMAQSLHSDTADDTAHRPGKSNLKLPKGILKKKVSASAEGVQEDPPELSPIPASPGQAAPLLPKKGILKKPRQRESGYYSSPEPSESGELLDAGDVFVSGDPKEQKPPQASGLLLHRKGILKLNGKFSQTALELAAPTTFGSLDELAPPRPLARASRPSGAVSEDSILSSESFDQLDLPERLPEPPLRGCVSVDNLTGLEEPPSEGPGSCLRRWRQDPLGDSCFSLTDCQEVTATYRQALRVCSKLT

NEK7(h) = biological target: T3, NEK7(h) (Homo sapiens, UniProt Q8TDX7); conditions: read-out: Inhibition rate (%)
T3 construct: purchased Eurofins (KinaseProfiler)

IKKβ(h) = biological target: T4, IKKβ(h) (Homo sapiens, UniProt O14920); conditions: read-out: Inhibition rate (%)
T4 construct: purchased Eurofins (KinaseProfiler)
T4 sequence (O14920 1-756): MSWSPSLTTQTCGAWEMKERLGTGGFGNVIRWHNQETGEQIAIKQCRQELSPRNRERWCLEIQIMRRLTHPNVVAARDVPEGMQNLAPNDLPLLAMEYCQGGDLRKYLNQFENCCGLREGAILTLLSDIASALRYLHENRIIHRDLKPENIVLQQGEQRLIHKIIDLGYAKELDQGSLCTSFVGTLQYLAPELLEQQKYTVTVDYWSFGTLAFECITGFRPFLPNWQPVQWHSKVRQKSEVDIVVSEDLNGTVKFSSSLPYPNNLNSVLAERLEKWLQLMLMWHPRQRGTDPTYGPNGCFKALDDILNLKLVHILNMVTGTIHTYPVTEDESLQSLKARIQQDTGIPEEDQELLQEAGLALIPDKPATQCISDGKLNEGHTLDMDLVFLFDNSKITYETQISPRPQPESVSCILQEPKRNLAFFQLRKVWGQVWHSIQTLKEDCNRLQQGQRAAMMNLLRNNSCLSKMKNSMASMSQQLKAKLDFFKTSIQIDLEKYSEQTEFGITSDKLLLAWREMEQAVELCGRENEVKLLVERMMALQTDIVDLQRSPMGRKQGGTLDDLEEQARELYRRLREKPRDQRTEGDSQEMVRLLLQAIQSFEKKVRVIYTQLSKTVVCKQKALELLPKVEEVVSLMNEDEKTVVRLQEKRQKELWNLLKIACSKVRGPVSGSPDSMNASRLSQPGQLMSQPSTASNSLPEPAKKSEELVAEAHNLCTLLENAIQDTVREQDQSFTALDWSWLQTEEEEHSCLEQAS

ATM(h) = biological target: T5, ATM(h) (Homo sapiens, UniProt Q13315); conditions: read-out: Inhibition rate (%)
T5 construct: purchased Eurofins (KinaseProfiler)

WNK1(h) = biological target: T6, WNK1(h) (Homo sapiens, UniProt Q9H4A3); conditions: read-out: Inhibition rate (%)
T6 construct: purchased Eurofins (KinaseProfiler)

CDK2/cyclinA(h) = biological target: T7, CDK2/cyclinA(h) (Homo sapiens, UniProt P24941); conditions: read-out: Inhibition rate (%)
T7 construct: purchased Eurofins (KinaseProfiler)

CK1(y) = system: CK1(y)
MKK7β(h) = biological target: T8, MKK7β(h) (Homo sapiens, UniProt O14733); conditions: read-out: Inhibition rate (%)
T8 construct: purchased Eurofins (KinaseProfiler)
T8 sequence (O14733 1-419): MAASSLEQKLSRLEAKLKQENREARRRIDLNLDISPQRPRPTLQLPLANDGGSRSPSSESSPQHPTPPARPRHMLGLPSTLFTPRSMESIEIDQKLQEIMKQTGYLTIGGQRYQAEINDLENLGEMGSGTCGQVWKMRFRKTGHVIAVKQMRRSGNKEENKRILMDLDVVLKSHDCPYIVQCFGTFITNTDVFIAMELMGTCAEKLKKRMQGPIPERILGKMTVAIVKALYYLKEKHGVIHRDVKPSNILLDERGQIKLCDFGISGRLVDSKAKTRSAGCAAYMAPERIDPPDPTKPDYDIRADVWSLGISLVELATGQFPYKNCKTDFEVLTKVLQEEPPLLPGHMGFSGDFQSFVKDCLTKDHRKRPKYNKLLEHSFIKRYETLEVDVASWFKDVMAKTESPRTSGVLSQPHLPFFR

T1 sequence (Q96GD4 whole entry): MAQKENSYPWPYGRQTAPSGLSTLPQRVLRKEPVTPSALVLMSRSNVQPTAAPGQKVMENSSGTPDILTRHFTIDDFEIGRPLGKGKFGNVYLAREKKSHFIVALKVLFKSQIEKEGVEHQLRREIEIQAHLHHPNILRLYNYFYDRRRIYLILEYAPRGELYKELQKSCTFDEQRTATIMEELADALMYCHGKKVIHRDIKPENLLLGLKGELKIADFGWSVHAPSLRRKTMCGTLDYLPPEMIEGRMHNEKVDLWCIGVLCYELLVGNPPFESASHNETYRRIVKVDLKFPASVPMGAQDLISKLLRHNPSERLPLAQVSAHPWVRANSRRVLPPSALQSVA
T6 sequence (Q9H4A3 whole entry): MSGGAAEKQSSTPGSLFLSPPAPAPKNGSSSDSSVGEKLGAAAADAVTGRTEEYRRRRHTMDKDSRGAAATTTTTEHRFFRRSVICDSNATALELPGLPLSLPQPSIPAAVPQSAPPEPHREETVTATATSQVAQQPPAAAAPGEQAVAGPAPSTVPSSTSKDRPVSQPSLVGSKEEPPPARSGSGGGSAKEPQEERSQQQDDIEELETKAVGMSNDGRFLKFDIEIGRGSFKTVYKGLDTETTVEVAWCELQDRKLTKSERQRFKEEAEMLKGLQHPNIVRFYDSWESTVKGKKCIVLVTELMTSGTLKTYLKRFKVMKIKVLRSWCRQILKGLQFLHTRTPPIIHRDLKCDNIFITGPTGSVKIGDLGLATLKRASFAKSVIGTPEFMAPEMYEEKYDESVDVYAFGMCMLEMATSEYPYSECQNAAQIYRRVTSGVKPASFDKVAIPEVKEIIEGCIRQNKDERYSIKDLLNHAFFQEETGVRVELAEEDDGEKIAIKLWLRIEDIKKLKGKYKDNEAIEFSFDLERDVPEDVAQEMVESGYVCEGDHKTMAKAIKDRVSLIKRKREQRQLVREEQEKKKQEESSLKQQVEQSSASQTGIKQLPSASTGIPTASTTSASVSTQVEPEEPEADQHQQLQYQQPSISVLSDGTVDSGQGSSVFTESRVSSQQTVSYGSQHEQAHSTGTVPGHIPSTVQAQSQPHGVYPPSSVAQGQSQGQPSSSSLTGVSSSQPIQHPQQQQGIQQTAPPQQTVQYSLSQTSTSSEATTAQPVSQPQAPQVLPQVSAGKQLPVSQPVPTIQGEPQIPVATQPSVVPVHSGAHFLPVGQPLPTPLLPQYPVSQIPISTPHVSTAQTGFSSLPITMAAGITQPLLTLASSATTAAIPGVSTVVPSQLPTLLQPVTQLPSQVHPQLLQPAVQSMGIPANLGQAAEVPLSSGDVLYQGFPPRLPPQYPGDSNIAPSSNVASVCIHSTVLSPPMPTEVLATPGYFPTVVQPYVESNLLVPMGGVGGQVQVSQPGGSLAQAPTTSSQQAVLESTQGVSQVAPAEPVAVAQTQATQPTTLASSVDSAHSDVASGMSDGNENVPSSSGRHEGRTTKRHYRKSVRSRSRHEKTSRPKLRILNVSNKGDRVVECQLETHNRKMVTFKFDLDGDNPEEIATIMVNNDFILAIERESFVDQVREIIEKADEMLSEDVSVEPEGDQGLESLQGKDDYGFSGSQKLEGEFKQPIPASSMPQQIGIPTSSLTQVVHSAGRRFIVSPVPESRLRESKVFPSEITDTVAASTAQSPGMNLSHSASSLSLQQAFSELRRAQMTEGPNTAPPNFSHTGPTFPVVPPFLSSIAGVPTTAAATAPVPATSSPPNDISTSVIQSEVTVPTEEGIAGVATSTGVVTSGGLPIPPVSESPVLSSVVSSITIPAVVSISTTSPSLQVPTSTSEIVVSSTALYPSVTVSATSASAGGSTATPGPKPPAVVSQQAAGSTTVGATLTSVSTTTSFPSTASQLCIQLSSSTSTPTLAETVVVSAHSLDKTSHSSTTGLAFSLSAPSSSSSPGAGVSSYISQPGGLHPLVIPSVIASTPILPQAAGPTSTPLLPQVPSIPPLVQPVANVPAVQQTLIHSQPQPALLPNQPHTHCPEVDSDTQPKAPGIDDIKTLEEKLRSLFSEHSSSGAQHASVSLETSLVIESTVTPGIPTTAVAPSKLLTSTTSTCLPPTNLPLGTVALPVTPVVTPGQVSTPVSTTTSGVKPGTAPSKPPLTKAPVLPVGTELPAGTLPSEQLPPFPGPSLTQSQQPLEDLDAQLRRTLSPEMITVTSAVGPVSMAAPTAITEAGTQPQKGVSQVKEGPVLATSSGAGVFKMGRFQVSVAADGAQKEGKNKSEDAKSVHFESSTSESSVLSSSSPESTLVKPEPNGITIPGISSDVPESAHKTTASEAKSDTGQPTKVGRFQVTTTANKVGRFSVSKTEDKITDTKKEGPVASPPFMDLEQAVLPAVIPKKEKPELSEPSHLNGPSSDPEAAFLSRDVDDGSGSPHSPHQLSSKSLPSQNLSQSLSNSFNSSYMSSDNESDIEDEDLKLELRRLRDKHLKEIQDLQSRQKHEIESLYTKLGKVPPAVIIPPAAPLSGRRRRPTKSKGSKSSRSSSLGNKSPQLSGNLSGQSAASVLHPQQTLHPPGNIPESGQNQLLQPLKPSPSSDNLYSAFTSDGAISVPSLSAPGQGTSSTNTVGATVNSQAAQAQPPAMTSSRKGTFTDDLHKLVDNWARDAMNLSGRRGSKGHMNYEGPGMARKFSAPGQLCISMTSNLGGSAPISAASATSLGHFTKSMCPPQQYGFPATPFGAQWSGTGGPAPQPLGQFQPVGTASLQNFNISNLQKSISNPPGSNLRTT
T3 sequence (Q8TDX7 whole entry): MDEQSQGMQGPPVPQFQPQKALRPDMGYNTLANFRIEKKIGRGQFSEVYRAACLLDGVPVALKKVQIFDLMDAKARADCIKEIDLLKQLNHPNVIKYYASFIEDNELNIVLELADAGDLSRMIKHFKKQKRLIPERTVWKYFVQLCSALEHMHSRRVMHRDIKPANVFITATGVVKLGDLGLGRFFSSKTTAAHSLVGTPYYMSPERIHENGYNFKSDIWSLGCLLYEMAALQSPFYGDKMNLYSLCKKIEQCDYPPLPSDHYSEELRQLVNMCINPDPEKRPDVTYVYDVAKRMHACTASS

For `COc1cc(OC)c(Cl)c(-c2ccc3c(NC(=O)c4ccc(N5CCNC(C)(C)C5)cc4)n[nH]c3n2)c1Cl` [3D185], the inhibition at 0.01 µM (Aurora-B(h); 10 nM) was 7%, the inhibition at 0.1 µM (Aurora-B(h); 100 nM) was -4% and the inhibition at 1 µM (Aurora-B(h); 1000 nM) was 5%. It also gave an inhibition at 0.01 µM (NUAK2(h); 10 nM) of -1%, an inhibition at 0.1 µM (NUAK2(h); 100 nM) of -1% and an inhibition at 1 µM (NUAK2(h); 1000 nM) of 0%. It also gave an inhibition at 0.01 µM (NEK7(h); 10 nM) of 2%, an inhibition at 0.1 µM (NEK7(h); 100 nM) of 1% and an inhibition at 1 µM (NEK7(h); 1000 nM) of -1%. The inhibition at 0.01 µM (IKKβ(h); 10 nM) was 0%, the inhibition at 0.1 µM (IKKβ(h); 100 nM) was -5% and the inhibition at 1 µM (IKKβ(h); 1000 nM) was 15%. The inhibition at 0.01 µM (ATM(h); 10 nM) was -3%, the inhibition at 0.1 µM (ATM(h); 100 nM) was -5% and the inhibition at 1 µM (ATM(h); 1000 nM) was -5%. The inhibition at 0.01 µM (WNK1(h); 10 nM) was 3%, the inhibition at 0.1 µM (WNK1(h); 100 nM) was 2% and the inhibition at 1 µM (WNK1(h); 1000 nM) was 16%. The inhibition at 0.01 µM (CDK2/cyclinA(h); 10 nM) was 2%, the inhibition at 0.1 µM (CDK2/cyclinA(h); 100 nM) was 7% and the inhibition at 1 µM (CDK2/cyclinA(h); 1000 nM) was -3%. The “Inhibition rate (%)” value (CK1(y); 10 nM) was -1%, the “Inhibition rate (%)” value (CK1(y); 100 nM) was 0% and the “Inhibition rate (%)” value (CK1(y); 1000 nM) was 2%. It also gave an inhibition at 0.01 µM (MKK7β(h); 10 nM) of 9%, an inhibition at 0.1 µM (MKK7β(h); 100 nM) of -2% and an inhibition at 1 µM (MKK7β(h); 1000 nM) of 12%.

Source: publication PMC6704710, “Preclinical evaluation of 3D185, a novel potent inhibitor of FGFR1/2/3 and CSF-1R, in FGFR-dependent and macrophage-dominant cancer models” (Journal of Experimental & Clinical Cancer Research : CR, 2019)
